Values quoted from earlier work in patent publication US20230173296A1, “INTRACAVITARY PHOTODYNAMIC THERAPY” (Simphotek, Inc., priority 2020, published 2023).
Read-outs that look alike come from different tables or passages of the source.

What was measured:
[1] = tested on: Human prostate; conditions: Davidson et. al., 2009
[2] = tested on: tumors in mice; conditions: Qiu et. al., 2016
[3] = tested on: cancer in mice; conditions: I-PDT, Shafirstein et. al., 2018
[4] = tested on: cancer in rabbits; conditions: I-PDT, Shafirstein et. al., 2018

In the case of “benzoporphyrin derivative monoacid ring A [BPD]”, the “ε, PS extinction coefficient” value (690 nm) is listed as “BPD (690 nm): 0.0783 cm^−1 μM^−1”.

In the case of `CC[C@H]1c2cc3[n-]c4c(c3C)C(=O)[C@H](C(=O)OC)c4c3nc(cc4[n-]c(cc(n2)[C@@H]1C)c(C(C)=O)c4C)[C@@H](C)[C@@H]3CCC(=O)O.[Pd+2]` [TOOKAD], the “Threshold Light Dose” value [1] is listed as >23 (Davidson et. al., 2009) J/cm^2.

For Photofrin, the “Threshold [^1O2]dose” value [2] is listed as >1.0 (Qiu et. al., 2016) mM, the “Threshold Light Dose Rate ϕT” value [3] is listed as 8.4 (Shafirstein et. al., 2018) mW/cm^2 and the “Threshold Light Dose Rate ϕT” value [4] is listed as 16.5 (Shafirstein et. al., 2018) mW/cm^2. The “ε, PS extinction coefficient” value (630 nm) was “Photofrin (630 nm): 0.0035 cm^−1 μM^−1”.

In the case of `Oc1cccc(-c2c3nc(c(-c4cccc(O)c4)c4ccc([nH]4)c(-c4cccc(O)c4)c4nc(c(-c5cccc(O)c5)c5ccc2[nH]5)CC4)C=C3)c1` [mTHPC], the “ε, PS extinction coefficient” value (650 nm) is listed as “mTHPC (650 nm): 0.048 cm^−1 μM^−1”.
